Like-named read-outs stand apart in the source and are kept apart here.
What was measured:
phos-MPM2 marker = test: Exit from mitosis measured by phos-MPM2 marker after anti-mitotic induced arrest; format: cell-based; details: taxane and KSP induced arrest
Procedure: (§1) Single agent Aurora kinase inhibitors require a drug exposure time of 24 hours to induce endoreduplication in asynchronous cells.

cancer cell lines = details: cited from earlier work; for cell growth inhibition in combination with a taxane: VX-680 with taxotere, VE-645 with taxol, AZD1152 with taxol, AACR 2007 abstracts; for synergy with Taxotere: Hoover and Harding 2007
[1] = tested on: HCT-116 colon cancer cells; test: FACS (flow cytometric) analysis of endoreduplication (>4N DNA content) in HCT-116 colon cancer cells; format: cell-based; details: for Aurora kinase inhibitor exposure at which endoreduplication was still observed (as little as): after 16 hours 5 nM taxotere pretreatment; for exposure to Aurora kinase inhibitor required to induce endoreduplication (>4N DNA content) or cell death: asynchronous cells, 250 nM VX-680, 1000 nM COMPOUND X, 25 nM COMPOUND Z; for exposure to Aurora kinase inhibitor required to induce endoreduplication (>4N DNA content) or cell death / endoreduplication (>4N DNA content): single agent; for time required for Aurora inhibitor to induce endoreduplication, change after pre-treatment: following 16 hour pre-treatment with nocodazole, 250 nM VX-680, 1000 nM COMPOUND X or COMPOUND Z; for cell cycle distribution after release from anti-mitotic pretreatment: 16 hours pretreatment (5 nM taxotere / 0.4 μg/ml nocodazole), then released into DMSO; for cell cycle distribution after anti-mitotic pretreatment (labeled 0 hours): 16 hours pretreatment, 5 nM taxotere / 0.4 μg/ml nocodazole; for effect of anti-mitotic pre-treatment on the exposure time required for an Aurora kinase inhibitor to induce endoreduplication: 16 hour pre-treatment with the anti-mitotic agent (5 nM taxol, 10-50 nM KSP inhibitors)
Procedure: Asynchronous cells require 24 hour exposure to Aurora kinase inhibitors (such as 250 nM VX-680 or 1000 nM COMPOUND X. (Compound X is disclosed in WO 2008/057512, filed Nov. 6, 2007, Example 4-3 and Claim 70, Example 4-3 and Claim 70 and is shown below and it is represented in Formula H and Table 2, column 2, row 17 of the present application) or 25 nM COMPOUND Z (Compound Z is disclosed in PCT US2008/007295, filed Jun. 11, 2008, Example 76-2 and Claim 25, row 7, column 4 and it is represented in Table 13, compound 76-2 of the present application)) to induce endoreduplication (>4N DNA content) or cell death. For example, HCT-116 colon cancer cells were treated with 1000 nM COMPOUND X or 25 nM COMPOUND Z for the indicated times at which time the drug was washed off and replaced with new media see FIG. 1 and FIG. 8 respectively. Cells were analyzed by FACS after a total of 72 hours.
For example, HCT-116 colon cancer cells were treated with 1000 nM COMPOUND X or 25 nM COMPOUND Z for the indicated times at which time the drug was washed off and replaced with new media see FIG. 2 and FIG. 9 respectively. Cells were analyzed by FACS after a total of 24 hours.
For example, HCT-116 colon cancer cells were treated for 16 hours with DMSO (FIG. 3) or 5 nM taxotere and then exposed to DMSO or 1000 nM COMPOUND X or 25 nM COMPOUND Z for 4, 8, and 24 hours. After 4 or 8 hours, COMPOUND X or COMPOUND Z was washed off and new media was added to the cells. Cells were harvested after 24 hours and analyzed by FACS (see FIG. 4 and FIG. 11 respectively). Following DMSO pretreatment, DMSO had no effect on cell cycle distribution. […] Endoreduplication was observed even when COMPOUND X or COMPOUND Z exposure was as little as 4 hours.
However, following a 16 hour pre-treatment with nocodazole for incrusting, the time required for an Aurora inhibitor (such as 250 nM VX-680 or 1000 nM COMPOUND X or COMPOUND Z) to induce endoreduplication was […]. For example, HCT-116 colon cancer cells were treated for 16 hours with 0.4 μg/ml nocodazole see FIG. 5, and then exposed to DMSO or 1000 nM COMPOUND X or COMPOUND Z for 4, 8 or 24 hours. After 4 or 8 hours, COMPOUND X or COMPOUND Z was washed off and new media was added to the cells. Cells were harvested after 24 hours and analyzed by FACS.
For example, HCT-116 colon cancer cells that were not pretreated, were treated with 5 nM taxotere plus DMSO or 1000 nM COMPOUND X or COMPOUND Z concurrently for 4, 8, or 24 hours. At the indicated time the media was removed and replaced with new media and taxotere was added back into these cells. Cells were harvested after 24 hours and analyzed by FACS see FIG. 6 or FIG. 12 respectively.

[2] = tested on: phosphorylation of Histone H3 (at serine-10); test: Inhibition of phosphorylation of Histone H3 (serine-10) stimulated by anti-mitotic agents; format: cell-based; details: stimulated by taxanes, KSP inhibitor, and nocodazole
Procedure: as §1

[3] = tested on: HCT-116 colon cancer cells; test: FACS (flow cytometric) analysis of endoreduplication (>4N DNA content) in HCT-116 colon cancer cells; format: cell-based; details: after 16 hours 10 nM Ispinesib pretreatment; 1000 nM Compound X / 25 nM Compound Z
[4] = tested on: cells arrested with taxol, monastrol or nocodazole; details: Morrow et al. 2005, Ditchfield et al. 2003, cited from earlier work
[5] = 16 hours 5 nM taxotere pretreatment, then 1000 nM Compound X or 25 nM Compound Z for 4, 8 and 24 hours, FACS at 24 hours
[6] = 16 hours 10 nM Ispinesib (KSP inhibitor) pretreatment, then 1000 nM Compound X or 25 nM Compound Z for 4, 8 and 24 hours, FACS at 24 hours
[7] = 16 hours DMSO pretreatment, then 1000 nM COMPOUND X or 25 nM COMPOUND Z for 4, 8 and 24 hours, FACS at 24 hours
[8] = 16 hours nocodazole (0.4 μg/ml) pretreatment, then 4- or 8-hour exposure to Aurora kinase inhibitor, FACS at 24 hours
[9] = 16 hours nocodazole (0.4 μg/ml) pretreatment, then 24 hour exposure to Aurora kinase inhibitor, FACS at 24 hours
[10] = Aurora kinase inhibitor given at the same time as 5 nM taxotere, 4 hour exposure, FACS at 24 hours
[11] = Aurora kinase inhibitor given at the same time as 5 nM taxotere, no pretreatment
[12] = 1000 nM Compound X / 25 nM Compound Z
[13] = 24 hour exposure, FACS after a total of 24 hours, 250 nM VX-680 / 1000 nM Compound X / 25 nM Compound Z
[14] = drug exposure for 24, 48, or 72 hours, FACS after a total of 72 hours, 1000 nM Compound X / 25 nM Compound Z
[15] = exposure less than 24 hours then drug washed off, FACS after a total of 72 hours, 1000 nM Compound X / 25 nM Compound Z
[16] = exposure less than 24 hours then washed off, FACS after a total of 24 hours, 250 nM VX-680 / 1000 nM Compound X / 25 nM Compound Z

CCN(CCCOc1ccc2c(Nc3cc(CC(=O)Nc4cccc(F)c4)n[nH]3)ncnc2c1)CCOP(=O)(O)O [AZD1152, reference compound]
exit from mitosis, as measured by phos-MPM2 marker (phos-MPM2 marker): accelerated the exit from mitosis | cell growth inhibition in combination with a taxane (cancer cell lines): showed enhanced cell growth inhibition

CSc1cn2c(-c3cn[nH]c3)cnc2c(Nc2cc(C)ns2)n1 [Compound X]
endoreduplication [1, 5]: induced endoreduplication | endoreduplication [1, 6]: induced endoreduplication | endoreduplication [1, 7]: induced endoreduplication, but only when COMPOUND X or COMPOUND Z exposure was 24 hours | endoreduplication [1, 8]: insufficient to induce endoreduplication | endoreduplication [1, 9]: induced endoreduplication | endoreduplication [1, 10]: not sufficient to induce endoreduplication | exposure needed to induce endoreduplication [1, 11]: 24 h | Aurora kinase inhibitor exposure at which endoreduplication was still observed (as little as) [1, 12]: ≤ 4 h | exposure to Aurora kinase inhibitor required to induce endoreduplication (>4N DNA content) or cell death [1]: 24 h | time required for Aurora inhibitor to induce endoreduplication, change after pre-treatment [1]: not reduced | endoreduplication (>4N DNA content) [1, 13]: sufficient to induce endoreduplication | endoreduplication (>4N DNA content) [1, 14]: resulted in the accumulation of cells that underwent endoreduplication | endoreduplication (>4N DNA content) [1, 15]: insufficient to induce endoreduplication | endoreduplication (>4N DNA content) [1, 16]: insufficient to induce endoreduplication | exit from mitosis, as measured by phos-MPM2 marker (phos-MPM2 marker): accelerated the exit from mitosis | inhibition of phosphorylation of Histone H3 (at serine-10) [2]: capable of inhibiting phosphorylation of Histone H3 | Aurora kinase inhibitor exposure at which endoreduplication was still observed (as little as) [3]: ≤ 4 h

CCN(Cc1cc(Nc2nc(C)cn3c(-c4cn[nH]c4)cnc23)sn1)C(C)(C)CO [Compound Z]
endoreduplication [1, 5]: induced endoreduplication | endoreduplication [1, 6]: induced endoreduplication | endoreduplication [1, 7]: induced endoreduplication, but only when COMPOUND X or COMPOUND Z exposure was 24 hours | endoreduplication [1, 8]: insufficient to induce endoreduplication | endoreduplication [1, 9]: induced endoreduplication | endoreduplication [1, 10]: not sufficient to induce endoreduplication | endoreduplication ([1]; Aurora kinase inhibitor given at the same time as 5 nM taxotere, 4 hour exposure, FACS at 24 hours, listed as COMPOUND Z): not sufficient | exposure needed to induce endoreduplication [1, 11]: 24 h | exposure needed to induce endoreduplication ([1]; Aurora kinase inhibitor given at the same time as Ispinesib (KSP inhibitor)): 24 h | endoreduplication ([1]; Aurora kinase inhibitor given at the same time as Ispinesib (KSP inhibitor), 4 hour exposure): not sufficient to induce endoreduplication | Aurora kinase inhibitor exposure at which endoreduplication was still observed (as little as) [1, 12]: ≤ 4 h | exposure to Aurora kinase inhibitor required to induce endoreduplication (>4N DNA content) or cell death [1]: 24 h | time required for Aurora inhibitor to induce endoreduplication, change after pre-treatment [1]: not reduced | endoreduplication (>4N DNA content) [1, 13]: sufficient to induce endoreduplication | endoreduplication (>4N DNA content) ([1]; 24 hour exposure, FACS after a total of 24 hours, 250 nM VX-680 / 1000 nM Compound X / 25 nM Compound Z, listed as COMPOUND Z): resulted in the accumulation of cells that underwent endoreduplication | endoreduplication (>4N DNA content) [1, 14]: resulted in the accumulation of cells that underwent endoreduplication | endoreduplication (>4N DNA content) [1, 15]: insufficient to induce endoreduplication | endoreduplication (>4N DNA content) [1, 16]: insufficient to induce endoreduplication | exit from mitosis, as measured by phos-MPM2 marker (phos-MPM2 marker): accelerated the exit from mitosis | inhibition of phosphorylation of Histone H3 (at serine-10) [2]: capable of inhibiting phosphorylation of Histone H3 | Aurora kinase inhibitor exposure at which endoreduplication was still observed (as little as) [3]: ≤ 4 h

Cc1cc(Nc2cc(N3CCN(C)CC3)nc(Sc3ccc(NC(=O)C4CC4)cc3)n2)n[nH]1 [MK-0457]
synergy with Taxotere (cancer cell lines; long-term survival assays): synergy occurred with simultaneous exposure | synergy with Taxotere (cancer cell lines; short-term viability assays): synergy occurs with sequential and not simultaneous exposure

CC(=O)O[C@@]12CO[C@@H]1C[C@H](O)[C@@]1(C)C(=O)[C@H](O)C3=C(C)[C@@H](OC(=O)[C@H](O)[C@@H](NC(=O)OC(C)(C)C)c4ccccc4)C[C@@](O)([C@@H](OC(=O)c4ccccc4)[C@H]21)C3(C)C [Taxotere, docetaxel, reference compound]
cell cycle distribution after release from anti-mitotic pretreatment [1]: exited mitosis | cell cycle distribution after anti-mitotic pretreatment (labeled 0 hours) [1]: accumulated in mitosis (4N DNA)

Cc1cc(Nc2cc(N3CCN(C)CC3)nc(Sc3ccc(NC(=O)C4CC4)cc3)n2)n[nH]1 [VX-680, reference compound]
exposure to Aurora kinase inhibitor required to induce endoreduplication (>4N DNA content) or cell death [1]: 24 h | time required for Aurora inhibitor to induce endoreduplication, change after pre-treatment [1]: not reduced | endoreduplication (>4N DNA content) [1, 13]: sufficient to induce endoreduplication | endoreduplication (>4N DNA content) [1, 16]: insufficient to induce endoreduplication | exit from mitosis, as measured by phos-MPM2 marker (phos-MPM2 marker): accelerated the exit from mitosis | cell growth inhibition in combination with a taxane (cancer cell lines): showed enhanced cell growth inhibition | inhibition of phosphorylation of Histone H3 (at serine-10) [2]: capable of inhibiting phosphorylation of Histone H3

COc1cc2c(Nc3ccc(NC(=O)c4ccccc4)cc3)ncnc2cc1OCCCN1CCOCC1 [ZM4477439]
mitotic arrest ([4]; arrest induced by nocodazole): not by nocodazole | mitotic arrest ([4]; arrest induced by taxol): abrogated mitotic arrest induced by taxol

COC(=O)Nc1nc2ccc(C(=O)c3cccs3)cc2[nH]1 [nocodazole, reference compound]
effect of anti-mitotic pre-treatment on the exposure time required for an Aurora kinase inhibitor to induce endoreduplication [1]: did not result in the same reduction in required exposure time | cell cycle distribution after release from anti-mitotic pretreatment [1]: exited mitosis | cell cycle distribution after anti-mitotic pretreatment (labeled 0 hours) [1]: accumulated in mitosis (4N DNA)

CC[C@]1(O)C[C@H]2CN(CCc3c([nH]c4ccccc34)[C@@](C(=O)OC)(c3cc4c(cc3OC)N(C=O)[C@H]3[C@@](O)(C(=O)OC)[C@H](OC(C)=O)[C@]5(CC)C=CCN6CC[C@]43[C@@H]65)C2)C1 [vincristine, reference compound]
effect of anti-mitotic pre-treatment on the exposure time required for an Aurora kinase inhibitor to induce endoreduplication [1]: did not result in the same reduction in required exposure time
